Test results: patent EP0383759B1 (Discovery Therapeutics, Inc., priority 1987, dated 1988)

Columns and labels:
A1 or A2 receptors [1] = assay: comparison of activity across the A1 and A2 adenosine receptor systems (discussion); assay type: biochemical; conditions: result in words
Experimental: (§1) Human platelet, rat pheochromocytoma (PC12) cell, rat fat cell and rat cerebral cortex membranes were prepared as described (4,5,6). Adenylate cyclase activity and binding of [^3H]PIA to cerebral cortex membranes were determined essentially as described (4,5,6).
(§2) KB values for the compounds were determined as described (4). […] EC50 and IC50 values for the agonists were obtained from the concentration-response curves by linear regression after logit-log transformation. KB values of the antagonists were calculated using the Schild equation KB = C/(CR-1), where C denotes the concentration of the competitor and CR the ratio of the EC50 and IC50 values in the presence and absence, respectively, of the competitor. IC50 of the compounds for inhibition of [^3H]PIA binding to cerebral cortex membranes were transformed into Ki values as described (6).

fat cell A1 receptor = target: T1, fat cell A1 receptor (Rattus norvegicus, UniProt P25099); assay: antagonism of R-PIA-induced inhibition of isoproterenol-stimulated adenylate cyclase activity in fat cell membranes; assay type: biochemical; conditions: result in words
T1 construct: from tissue; host or cells: rat fat cell membranes
T1 sequence (P25099 1-326): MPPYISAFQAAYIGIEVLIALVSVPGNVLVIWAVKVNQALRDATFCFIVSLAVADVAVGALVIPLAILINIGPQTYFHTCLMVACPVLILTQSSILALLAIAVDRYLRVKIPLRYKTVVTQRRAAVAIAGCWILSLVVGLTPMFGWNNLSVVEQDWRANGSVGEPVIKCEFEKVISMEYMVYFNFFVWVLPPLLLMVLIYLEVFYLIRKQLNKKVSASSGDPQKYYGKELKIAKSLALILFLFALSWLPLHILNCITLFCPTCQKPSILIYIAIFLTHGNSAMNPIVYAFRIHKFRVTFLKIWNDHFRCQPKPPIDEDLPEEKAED
Experimental: as §1, §2

[2] = tested on: heart rate and blood pressure; assay: in vivo heart rate and blood pressure in anesthetized rats after adenosine or NECA; conditions: urethan-anesthetized rats
From the text: Drug injections were made intravenously through a jugular cannula.

A1 adenosine receptor = target: T2, A1 adenosine receptor (Cavia porcellus, UniProt P47745); assay: antagonism of adenosine agonists' reduction in force of contraction of guinea pig atrium; assay type: cell-based; conditions: for antagonism at adenosine receptors in the atria / basal force of contraction in the atria: guinea pig atria; for antagonism at adenosine receptors in the atria: result in words
T2 construct: The left atria from male guinea pigs were isolated; from tissue; host or cells: isolated guinea pig left atrium
T2 sequence (P47745 1-326): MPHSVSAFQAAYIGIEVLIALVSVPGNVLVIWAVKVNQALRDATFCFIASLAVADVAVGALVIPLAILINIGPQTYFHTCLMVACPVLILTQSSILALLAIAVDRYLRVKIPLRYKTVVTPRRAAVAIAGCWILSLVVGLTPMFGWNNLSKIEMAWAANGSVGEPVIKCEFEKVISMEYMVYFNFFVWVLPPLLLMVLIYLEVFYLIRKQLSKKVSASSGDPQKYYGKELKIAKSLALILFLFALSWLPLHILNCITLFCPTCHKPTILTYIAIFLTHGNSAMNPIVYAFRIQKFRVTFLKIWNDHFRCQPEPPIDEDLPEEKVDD
Experimental: The left atria from male guinea pigs were isolated, suspended between two punctate electrodes, and placed in a 20 ml organ bath that contained Krebs-Hensileit solution that was continuously gassed with 95% O2 + 5% CO2 and maintained at 31°C. The resting tension was one gram. Theatria were stimulated electrically at 1 hz, 1 ms duration pulses at supramaximal voltage. The force of contraction was recorded isometrically.
(§3) The ability of the compounds to antagonize the effects of agonists was analyzed using modified Schild plots.

A2-adenosine receptors = assay: antagonism of adenosine agonists' decrease in contractile tone of guinea pig taenia caecum; assay type: cell-based; conditions: result in words
Experimental: The tissues were suspended in a 20 ml organ bath containing de Jalon's solution that was gassed with 95% O2 + 5% CO2 and maintained at 31°C. The resting tension was 1.5 g. The contractile response was measured isotonically.
as §3

[3] = target: T3, A2 receptors of platelets (Homo sapiens, UniProt P29274); assay: antagonism of NECA-induced stimulation of adenylate cyclase activity of human platelet membranes; assay type: biochemical; conditions: for antagonist potency at the platelet A2 receptor: NECA-induced stimulation of adenylate cyclase, human platelet membranes, result in words
T3 construct: NECA-induced stimulation of adenylate cyclase activity of human platelet membranes; from tissue; host or cells: human platelet membranes
Experimental: as §1, §2
In these cells, A2 receptor-mediated stimulation of adenylate cyclase results in an inhibition of aggregation (5,7).

A1 receptors = target: T4, A1 receptors (Rattus norvegicus, UniProt P25099); assay: inhibition of [^3H]PIA binding to rat cerebral cortex membranes; conditions: result in words
T4 construct: from tissue; host or cells: rat cerebral cortex membranes
T4 sequence (P25099 1-326): T1 sequence (P25099 1-326)
Experimental: as §1, §2

A1 or A2 receptors [4] = target: T5, A1 or A2 receptors (Rattus norvegicus, UniProt P25099); assay: comparison of activity across the A1 and A2 adenosine receptor systems (discussion); assay type: biochemical; conditions: test system not specified
T5 sequence (P25099 1-326): T1 sequence (P25099 1-326)
Experimental: as §1, §2

[5] = target: T6, A2 receptors of rat pheochromocytoma (PC12) cells (Rattus norvegicus, UniProt P30543); assay: antagonism of NECA-induced stimulation of adenylate cyclase activity of PC12 cell membranes; assay type: biochemical; conditions: NECA-stimulated adenylate cyclase, result in words
T6 construct: NECA-induced stimulation of adenylate cyclase activity of the PC12 cells membranes; endogenous in cells; host or cells: rat pheochromocytoma PC12 cell membranes
Experimental: as §1, §2

[6] = affinity constants, guinea pig left atria, modified Schild plots

T6 sequence (P30543 whole entry): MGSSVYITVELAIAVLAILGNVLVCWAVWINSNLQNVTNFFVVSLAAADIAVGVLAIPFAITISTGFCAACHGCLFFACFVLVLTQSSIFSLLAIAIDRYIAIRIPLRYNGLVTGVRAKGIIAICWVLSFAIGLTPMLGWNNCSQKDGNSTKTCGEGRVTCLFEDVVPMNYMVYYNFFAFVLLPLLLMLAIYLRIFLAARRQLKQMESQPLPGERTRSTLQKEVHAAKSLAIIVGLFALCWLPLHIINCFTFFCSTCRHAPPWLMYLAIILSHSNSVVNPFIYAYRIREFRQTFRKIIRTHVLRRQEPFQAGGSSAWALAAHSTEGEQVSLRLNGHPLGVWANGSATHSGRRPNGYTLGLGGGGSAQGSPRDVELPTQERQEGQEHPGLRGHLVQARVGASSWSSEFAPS
T3 sequence (P29274 whole entry): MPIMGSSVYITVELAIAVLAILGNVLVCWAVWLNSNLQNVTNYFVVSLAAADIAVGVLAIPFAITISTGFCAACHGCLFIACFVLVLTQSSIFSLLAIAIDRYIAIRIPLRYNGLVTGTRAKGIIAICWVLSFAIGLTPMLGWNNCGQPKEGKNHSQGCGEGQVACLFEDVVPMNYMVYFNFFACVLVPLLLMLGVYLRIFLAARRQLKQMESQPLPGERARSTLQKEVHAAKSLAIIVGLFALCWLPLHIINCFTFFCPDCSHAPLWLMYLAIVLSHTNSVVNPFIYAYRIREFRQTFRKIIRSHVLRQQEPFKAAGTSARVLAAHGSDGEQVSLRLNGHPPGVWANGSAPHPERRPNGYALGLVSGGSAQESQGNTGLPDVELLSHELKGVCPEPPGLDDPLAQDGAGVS

## COc1cc(CCNc2ncnc3c2ncn3C)cc(OC)c1OC
A1 or A2 receptors [1]
  selectivity for A1 or A2 receptors: selectivity for A2 receptors

## C[C@@H](Cc1ccccc1)Nc1ncnc2c1ncn2C [Example 17, N^6-S-1-Phenyl-2-propyl-9-MA]
Fat cell A1 receptor
  antagonistic potency at the fat cell A1 receptor: more potent than the parent compound

## Cn1cnc2c(N[C@@H]3C[C@@H]4CC[C@H]3C4)ncnc21 (relative stereo) [N^6-(endonorbornyl)-9-methyladenine]
[2]; intravenous
  effects of subsequently administered adenosine on blood pressure, heart rate and P-R interval: attenuated
  heart block caused by adenosine at high doses: substantially reduced

## Cn1cnc2c(N[C@H]3C[C@H]4CC[C@@H]3C4)ncnc21 (relative stereo) [Example 22, N^6-(endonorbornyl)-9-methyladenine]
[2]; prior administration
  NECA-induced decrease in blood pressure: minimally affecting
  effects of NECA on the heart: attenuated
A1 adenosine receptor
  antagonism at adenosine receptors in the atria: competitive antagonists
A1 adenosine receptor; listed as Ex. 22
  antagonism at adenosine receptors in the atria: the most potent antagonist
A2-adenosine receptors
  antagonism of the effects of adenosine agonists in relaxing the taenia caecum: did not competitively antagonize

## Cn1cnc2c(NCCc3ccsc3)ncnc21 [Example 15, N^6-2-(3-thienylethyl)-9-methyladenine]
[3]
  antagonist potency at the platelet A2 receptor: somewhat more potent

## C[C@H](Cc1ccccc1)Nc1ncnc2c1ncn2C [Example 16, N^6-R-1-Phenyl-2-propyl-9-MA]
A1 receptors
  Ki-values for inhibition of [^3H]PIA binding: more potent than the S-isomer
[3]
  antagonist potency at the platelet A2 receptor: more potent than the S-isomer
Fat cell A1 receptor
  antagonistic potency at the fat cell A1 receptor: more potent than the parent compound

## CNc1ncnc2c1ncn2C [Example 7, N^6-Methyl-9-MA]
[3]
  antagonist potency at the platelet A2 receptor: much less potent than 9-methyladenine
Fat cell A1 receptor
  antagonistic potency at the fat cell A1 receptor: less potent than 9-methyladenine

## Cn1c(=O)c2[nH]c(-c3ccccc3)nc2n(C)c1=O [Example 8-PT, 8-phenyltheophylline, reference compound]
A2-adenosine receptors
  antagonism of the effects of adenosine agonists in relaxing the taenia caecum: did antagonize the effects of agonists at low concentrations

## Cn1cnc2c(NC3CCC3)ncnc21 [Example 3, N^6-Cyclobutyl-9-MA]
A1 or A2 receptors [4]
  activity at A1 receptors: the most potent of N^6-substituted 9-methyladenines at A1 receptors
[3]
  antagonist potency at the platelet A2 receptor: more potent than 9-methyladenine itself
Fat cell A1 receptor
  antagonistic potency at the fat cell A1 receptor: more potent than the parent compound

## Nc1ncnc2nc[nH]c12 [Example 1, Adenine, reference compound]
A1 receptors
  Ki-values for inhibition of [^3H]PIA binding: low potency
[5]
  antagonist potency at the A2 receptor of PC12 cells: very weak antagonist
[3]
  antagonist potency at the platelet A2 receptor: very weak antagonist
[3]; human platelets, data not shown
  basal adenylate cyclase activity: does not affect
Fat cell A1 receptor
  antagonistic potency at the fat cell A1 receptor: does not affect

## Cn1cnc2c(Nc3ccccc3F)ncnc21 [Example 10, N^6-2-Fluorophenyl-9-MA]
[3]
  antagonist potency at the platelet A2 receptor: increases potency
Fat cell A1 receptor
  antagonistic potency at the fat cell A1 receptor: more potent than 9-methyladenine

## COc1cc(CCNc2ncnc3c2ncn3C)cc(OC)c1OC [Example 13, N^6-2-(3,4,5-trimethoxyphenylethyl)-9-methyladenine]
A1 receptors
  Ki-values for inhibition of [^3H]PIA binding: very weak antagonists
[3]
  antagonist potency at the platelet A2 receptor: as potent as 9-methyladenine

## Cn1cnc2c(NC3(C)CCCC3)ncnc21 [Example 5, N^6-1-methylcyclopentyl-9-methyladenine]
[5]
  antagonist potency at the A2 receptor of PC12 cells: reduces potency
A1 or A2 receptors [4]
  activity at A1 receptors: reduces activity at A1 receptors
[3]
  antagonist potency at the platelet A2 receptor: less potent than the parent cyclopentyl analog
Fat cell A1 receptor
  antagonistic potency at the fat cell A1 receptor: less potent than the N^6-cyclopentyl analog

## CCC(CC)Nc1ncnc2c1ncn2C [Example 8, N^6-3-pentyl-9-methyladenine]
[5]
  antagonist potency at the A2 receptor of PC12 cells: more potent at the platelet A2 receptor than at the PC12 A2 receptor
A1 adenosine receptor; [6]
  Kb: 3980 nM
A1 adenosine receptor
  basal force of contraction in the atria: produced increases
  antagonism at adenosine receptors in the atria: competitive antagonists
A2-adenosine receptors
  antagonism of the effects of adenosine agonists in relaxing the taenia caecum: did not competitively antagonize
[3]
  antagonist potency at the platelet A2 receptor: more potent
Fat cell A1 receptor
  antagonistic potency at the fat cell A1 receptor: more potent than the parent compound

## Cn1cnc2c(NCCc3ccsc3)ncnc21 [N^6-2-(3-thienylethyl)-9-methyladenine]
Fat cell A1 receptor
  antagonistic potency at the fat cell A1 receptor: more potent than 9-methyladenine itself

## Cn1cnc2c(NCCc3ccccc3)ncnc21 [Example 12, N^6-2-Phenethyl-9-MA]
A1 receptors
  Ki-values for inhibition of [^3H]PIA binding: very weak antagonists
[3]
  antagonist potency at the platelet A2 receptor: less potent than 9-methyladenine
Fat cell A1 receptor
  antagonistic potency at the fat cell A1 receptor: much less potent

## Cn1cnc2c(NC3CCCC3)ncnc21 [Example 4, N^6-cyclopentyl-9-methyladenine]
A1 receptors
  Ki-values for inhibition of [^3H]PIA binding: more potent than the N^6-methylcyclopentyl analog
[5]
  antagonist potency at the A2 receptor of PC12 cells: more potent at the platelet A2 receptor than at the PC12 A2 receptor
A1 adenosine receptor; [6]
  Kb: 676 nM
A1 adenosine receptor
  antagonism at adenosine receptors in the atria: competitive antagonists
A1 or A2 receptors [4]
  activity at A1 receptors: the most potent of N^6-substituted 9-methyladenines at A1 receptors
A2-adenosine receptors
  antagonism of the effects of adenosine agonists in relaxing the taenia caecum: did not competitively antagonize
[3]
  antagonist potency at the platelet A2 receptor: more potent than 9-methyladenine itself
Fat cell A1 receptor
  antagonistic potency at the fat cell A1 receptor: more potent than the parent compound

## Cn1cnc2c(N)ncnc21 [Example 2, 9-methyladenine, reference compound]
A1 receptors
  Ki-values for inhibition of [^3H]PIA binding: equally potent at A1 receptors of fat cells and cerebral cortex
[5]
  antagonist potency at the A2 receptor of PC12 cells: equally potent at A2 receptors of human platelets and rat PC12 cells
[3]
  antagonist potency at the platelet A2 receptor: more potent than the adenine itself
Fat cell A1 receptor
  antagonistic potency at the fat cell A1 receptor: antagonizes the effect of R-PIA

## Cn1cnc2c(Nc3ccccc3)ncnc21 [Example 9, N^6-Phenyl-9-MA]
[5]
  antagonist potency at the A2 receptor of PC12 cells: more potent at the platelet A2 receptor than at the PC12 A2 receptor
[3]
  antagonist potency at the platelet A2 receptor: equipotent to 9-methyladenine
Fat cell A1 receptor
  antagonistic potency at the fat cell A1 receptor: more potent than 9-methyladenine

## Cn1cnc2c(NC3CCCCC3)ncnc21 [Example 6, N^6-Cyclohexyl-9-MA]
A1 or A2 receptors [4]
  activity at A1 receptors: the most potent of N^6-substituted 9-methyladenines at A1 receptors
[3]
  antagonist potency at the platelet A2 receptor: more potent than 9-methyladenine itself
Fat cell A1 receptor
  antagonistic potency at the fat cell A1 receptor: more potent than the parent compound

## N^6-4-(-2-thienyl) -3-butyl) -9-MA [Example 23]
A1 adenosine receptor; [6]
  pKB: 5.36 ± 0.1
A1 adenosine receptor
  basal force of contraction in the atria: produced increases
  antagonism at adenosine receptors in the atria: competitive antagonists

## Cn1cnc2c(NCc3ccccc3)ncnc21 [Example 11, N^6-benzyl-9-methyladenine]
A1 or A2 receptors [4]
  activity at A1 receptors: modest activity
[3]
  antagonist potency at the platelet A2 receptor: less potent than 9-methyladenine

## Cn1cnc2c(NCCc3cccnc3)ncnc21 [Example 14, N^6-2-(3-pyridylethyl)-9-methyladenine]
[3]
  antagonist potency at the platelet A2 receptor: less potent than 9-methyladenine
